Here are results for 20 compounds from publication PMC7168933, “Design, Synthesis and Biochemical Evaluation of Novel Ethanoanthracenes and Related Compounds to Target Burkitt’s Lymphoma” (Pharmaceuticals, 2020).

Broadly, the melting point is the temperature of the solid-liquid transition. A word on the IC50: it is the concentration at which inhibition is half-maximal.

Series [1] deals with DG-75 Burkitt lymphoma cell line (EBV−, chemoresistant). In words: cells. The settings on record: Homo sapiens, DG-75, 48 h.
The subject of series [2] is MUTU-1 Burkitt lymphoma cell line (EBV+). In words: cells. The following applies: Mutu-1, 24 h.
The mark [3] stands for this setting: read-out: DG-75 Cell Viability % 1 μM, 1 μM, 48 h.
The mark [4] stands for this setting: read-out: MUTU-1 Cell Viability % 1 μM, 1 μM, 24 h.
Where [5] appears, read: read-out: MUTU-1 Cell Viability % 10 μM, 10 μM, 24 h.
Setting [6] is: read-out: DG-75 Cell Viability % 10 μM, 10 μM, 48 h.

Like-named read-outs stand apart in the source and are kept apart here.

In the case of `CN(C)CCCN1c2ccccc2Sc2ccc(Cl)cc21` [Compound 5], the viability at 1 µM in series [1] (setting [3]) was 6 to 28%. Moreover, in series [1] (read-out: viable cells in DG-75 at 0.5 µM, 0.5 µM, 48 h), the viability at 0.5 µM fell in the range of 18 to 57%.
Turning to `CC/C(=C\C12c3ccccc3C(c3ccccc31)C1C(=O)OC(=O)C12)[N+](=O)[O-]` (centres unmarked) [Compound 13c, (E)-9-(2-Nitrobut-1-en-1-yl)-9,10-dihydro-9,10-[3,4]furanoanthracene-12,14-dione], the melting point was 230 to 233 °C. The viability at 1 µM in series [2] (setting [4]) was 64.1%. The viability at 10 µM in series [2] (setting [5]) is 74.1%. Moreover, the viability at 1 µM in series [1] (setting [3]) worked out at 68%. Besides, in series [1] (setting [6]), the viability at 10 µM is 80.7%.
On the same counts, the results for `O=C1OC(=O)C2C1C1(Cl)c3ccccc3C2(/C=C/[N+](=O)[O-])c2ccccc21` (centres unmarked) [Compound 13d, (E)-9-Chloro-10-(2-nitrovinyl)-9,10-dihydro-9,10-[3,4]furanoanthracene-12,14-dione] are 275 to 277 °C, 35.6%, 43.5%, 98.7% and 102%.
On the same counts, the results for `C/C(=C\C12c3ccccc3C(Cl)(c3ccccc31)C1C(=O)OC(=O)C12)[N+](=O)[O-]` (centres unmarked) [Compound 13e, (E)-9-Chloro-10-(2-nitroprop-1-en-1-yl)-9,10-dihydro-9,10-[3,4]furanoanthracene-12,14-dione] are 270 to 272 °C, 83.3%, 101%, 78.2% and 98.2%.
On to `CC/C(=C\C12c3ccccc3C(Cl)(c3ccccc31)C1C(=O)OC(=O)C12)[N+](=O)[O-]` (centres unmarked) [Compound 13f, (E)-9-Chloro-10-(2-nitrobut-1-en-1-yl)-9,10-dihydro-9,10-[3,4]furanoanthracene-12,14-dione], for which the melting point is 259 to 263 °C. For the same compound, in series [2] (setting [4]), the viability at 1 µM was 85.3%. The viability at 10 µM in series [2] (setting [5]) came out at 91.6%. Further, in series [1] (setting [3]), the viability at 1 µM came to 79.9%. Besides, in series [1] (setting [6]), the viability at 10 µM came out at 95.1%.
The compound `C/C(=C\C12c3ccccc3C(c3ccccc31)C1C(=O)NC(=O)C12)[N+](=O)[O-]` (centres unmarked) [Compound 13h, (E)-9-(2-Nitroprop-1-en-1-yl)-9,10-dihydro-9,10-[3,4]epipyrroloanthracene-12,14-dione] had a melting point of 296 to 300 °C. The viability at 1 µM in series [2] (setting [4]) came out at 99.7%. For the same compound, in series [2] (setting [5]), the viability at 10 µM is 82.6%. Further, the viability at 1 µM in series [1] (setting [3]) was 106%. Also, the viability at 10 µM in series [1] (setting [6]) was determined as 101%.
On the same counts, the results for `CC/C(=C\C12c3ccccc3C(c3ccccc31)C1C(=O)NC(=O)C12)[N+](=O)[O-]` (centres unmarked) [Compound 13i, (E)-9-(2-Nitrobut-1-en-1-yl)-9,10-dihydro-9,10-[3,4]epipyrroloanthracene-12,14-dione] are 296 to 298 °C, 91.1%, 73%, 96.3% and 89.4%.
On the same counts, the results for `C/C(=C\C12c3ccccc3C(Cl)(c3ccccc31)C1C(=O)NC(=O)C12)[N+](=O)[O-]` (centres unmarked) [Compound 13k, (E)-9-Chloro-10-(2-nitroprop-1-en-1-yl)-9,10-dihydro-9,10-[3,4]epipyrroloanthracene-12,14-dione] are 295 to 297 °C, 83.3%, 51.6%, 78.2% and 101%.
With `CCOC(=O)C1CC2c3ccccc3C1(/C=C/[N+](=O)[O-])c1ccccc12` (centres unmarked) [Compound 19b, Ethyl (E)-10-(2-nitrovinyl)-9,10-dihydro-9,10-ethanoanthracene-11-carboxylate], the viability at 1 µM in series [2] (setting [4]) worked out at 48.9%; in series [1] (setting [3]), 9.8%. The values for the viability at 10 µM in series [2] (setting [5]) and in series [1] (setting [6]) were 0.69% and 13.4%, respectively.
Turning to `COC(=O)C1CC2c3ccccc3C1(/C=C/[N+](=O)[O-])c1ccccc12` (centres unmarked) [Compound 19c, Methyl (E)-10-(2-nitrovinyl)-9,10-dihydro-9,10-ethanoanthracene-11-carboxylate], the IC50 in series [2] (read-out: IC50 MUTU-I 24 h) amounted to 540 nM. For the same compound, the viability at 1 µM in series [2] (setting [4]) came to 15.6%; in series [1] (setting [3]), 92.2%. Besides, the viability at 10 µM in series [2] (setting [5]) came out at 8.4%; in series [1] (setting [6]), 1.4%.
On to `O=C1OC(=O)C2C3c4ccccc4C(c4ccccc43)C12` (centres unmarked) [Compound 21a], for which the viability at 1 µM worked out at 103% in series [2] (setting [4]) and 91.4% in series [1] (setting [3]). Moreover, the viability at 10 µM in series [2] (setting [5]) came out at 93.1%; in series [1] (setting [6]) it was 69.9%.
On the same counts, the results for `O=CC12c3ccccc3C(c3ccccc31)C1C(=O)OC(=O)C12` (centres unmarked) [Compound 21d] are 87.4%, 64.8%, 88.4% and 64.7%.
In the case of `O=CC12c3ccccc3C(c3ccccc31)C1C(=O)NC(=O)C12` (centres unmarked) [Compound 21e], the viability at 1 µM came to 96.1% in series [2] (setting [4]) and 76% in series [1] (setting [3]). The viability at 10 µM in series [2] (setting [5]) amounted to 95.1%; in series [1] (setting [6]), 71.2%.
On the same counts, the results for `O=CC12c3ccccc3C(c3ccccc31)C1C(=O)N(c3ccccc3)C(=O)C12` (centres unmarked) [Compound 21f] are 102%, 102%, 77.7% and 72.4%.
On the same counts, the results for `O=C1OC(=O)C2C1C1c3ccccc3C2(C(=O)O)c2ccccc21` (centres unmarked) [Compound 21g] are 99.2%, 93.1%, 88.8% and 65.4%.
On the same counts, the results for `O=C1NC(=O)C2C1C1c3ccccc3C2(C(=O)O)c2ccccc21` (centres unmarked) [Compound 21h] are 92.6%, 86.3%, 92% and 73.1%.
`O=C1C2C3c4ccccc4C(C(=O)O)(c4ccccc43)C2C(=O)N1c1ccccc1` (centres unmarked) [Compound 21i]: the viability at 1 µM in series [2] (setting [4]) was 103%; in series [1] (setting [3]) it was 73.2%. Moreover, the viability at 10 µM in series [2] (setting [5]) came out at 92.5%; in series [1] (setting [6]), 67.5%.
On the same counts, the results for `O=C1OC(=O)C2C1C1c3ccccc3C2(O)c2ccccc21` (centres unmarked) [Compound 21j] are 103%, 68%, 100% and 93%.
In the case of `N/N=C/C12c3ccccc3C(c3ccccc31)C1C(=O)N(c3ccccc3)C(=O)C12` (centres unmarked) [Compound 23h, (E)-9-(Hydrazonomethyl)-13-phenyl-9,10-dihydro-9,10-[3,4]epipyrroloanthracene-12,14-dione], the values for the viability at 1 µM in series [2] (setting [4]) and in series [1] (setting [3]) were 91.1% and 85.8%, respectively. For the same compound, the viability at 10 µM in series [2] (setting [5]) is 78%; in series [1] (setting [6]), 87.4%.
For the compound `CNCCCC12CCC(c3ccccc31)c1ccccc12` [Maprotiline 8, maprotiline, reference compound], the figures for the viability at 1 µM in series [2] (read-out: MUTU-1 Cell Viability % 1 μM) and in series [1] (read-out: DG-75 Cell Viability % 1 μM) were 93.1% and 102%, respectively. In addition, the viability at 10 µM is 73% in series [2] (read-out: MUTU-1 Cell Viability % 10 μM) and 65.1% in series [1] (read-out: DG-75 Cell Viability % 10 μM).
